Assay: xn = mol fraction of the nth substance listed
Conditions: 101 kPa, Liquid; for speed of sound: Pulse-echo method

CCCCCCCCCCO [decan-1-ol] + Cc1ccc(C)cc1
Conditions	mass density, 293.15 K [kg/m3]	mass density, 303.15 K [kg/m3]	mass density, 313.15 K [kg/m3]	speed of sound, 293.15 K [m/s]	speed of sound, 303.15 K [m/s]	speed of sound, 313.15 K [m/s]
x2 = 0	829.98	823.1	816.27	1396	1362	1329
x2 = 0.0806	831.76	824.74	817.76	1391	1356	1322
x2 = 0.1731	833.82	826.66	819.54	1385	1349	1314
x2 = 0.2506	835.6	828.33	821.08	1378	1342	1307
x2 = 0.3197	837.25	829.88	822.5	1373	1336	1300
x2 = 0.3693	838.49	831.04	823.57	1368	1331	1295
x2 = 0.4336	840.17	832.6	825.02	1362	1325	1289
x2 = 0.4929	841.79	834.12	826.43	1357	1320	1283
x2 = 0.5771	844.26	836.42	828.58	1350	1312	1275
x2 = 0.662	846.98	838.96	830.98	1344	1305	1267
x2 = 0.7265	849.2	841.06	832.94	1340	1300	1262
x2 = 0.7763	851.04	842.8	834.58	1337	1297	1258
x2 = 0.8293	853.13	844.77	836.44	1335	1294	1255
x2 = 0.8891	855.65	847.2	838.71	1333	1292	1252
x2 = 0.9369	857.84	849.27	840.68	1332	1290	1250

CCCCCCCCCCO [decan-1-ol] + Cc1ccccc1C
Conditions	mass density, 293.15 K [kg/m3]	mass density, 303.15 K [kg/m3]	mass density, 313.15 K [kg/m3]	speed of sound, 293.15 K [m/s]	speed of sound, 303.15 K [m/s]	speed of sound, 313.15 K [m/s]
x2 = 0	829.98	823.1	816.27	1396	1362	1329
x2 = 0.0766	832.48	825.52	818.51	1394	1359	1325
x2 = 0.1331	834.38	827.33	820.23	1391	1356	1322
x2 = 0.1823	836.1	828.96	821.79	1389	1354	1319
x2 = 0.2509	838.57	831.31	824.05	1386	1350	1315
x2 = 0.3173	841.06	833.71	826.36	1383	1347	1311
x2 = 0.3896	843.95	836.48	829.02	1379	1343	1307
x2 = 0.4556	846.73	839.16	831.61	1376	1339	1303
x2 = 0.5261	849.91	842.23	834.57	1372	1335	1298
x2 = 0.6054	853.77	845.95	838.18	1369	1332	1294
x2 = 0.6597	856.61	848.71	840.85	1367	1329	1292
x2 = 0.7364	860.94	852.91	844.92	1365	1327	1289
x2 = 0.8029	865.03	856.89	848.8	1364	1325	1287
x2 = 0.873	869.74	861.49	853.27	1364	1325	1287
x2 = 0.9447	875.04	866.72	858.33	1366	1326	1287

CCCCCCCCCO [nonan-1-ol] + CCc1ccccc1
Conditions	mass density, 293.15 K [kg/m3]	mass density, 303.15 K [kg/m3]	mass density, 313.15 K [kg/m3]	speed of sound, 293.15 K [m/s]	speed of sound, 303.15 K [m/s]	speed of sound, 313.15 K [m/s]
x2 = 0	827.7	820.82	813.88	1381	1347	1314
x2 = 0.0611	829.32	822.34	815.3	1378	1343	1309
x2 = 0.1285	831.14	824.06	816.91	1374	1338	1304
x2 = 0.1791	832.56	825.4	818.16	1371	1335	1300
x2 = 0.2466	834.5	827.23	819.87	1366	1330	1294
x2 = 0.3151	836.57	829.17	821.69	1362	1324	1288
x2 = 0.3717	838.35	830.85	823.26	1358	1320	1283
x2 = 0.4254	840.12	832.51	824.82	1354	1316	1279
x2 = 0.5007	842.74	834.99	827.14	1349	1311	1273
x2 = 0.5756	845.55	837.63	829.63	1345	1306	1267
x2 = 0.6411	848.19	840.11	831.97	1341	1302	1263
x2 = 0.7122	851.28	843.05	834.74	1339	1298	1259
x2 = 0.7798	854.46	846.08	837.59	1337	1296	1257
x2 = 0.8557	858.37	849.81	841.14	1336	1295	1255
x2 = 0.9341	862.85	854.1	845.28	1338	1295	1254

Reference: the NIST ThermoML archive (doi:10.1021/je100734t)
